Assay results taken from patent publication US12459939B2 (SHANGHAI RINGENE BIOPHARMA CO., LTD., priority 2019, dated 2025).

Tests used:
Assay type in all cases: in vitro ADME
[1] = Metabolic stability in rat liver microsomes; settings: liver microsomes 0.5 mg/mL, NADPH, 1 μM compound, read-out: Rat microsomal T1/2
Protocol: (§1) (1) Metabolic stability test: 150 μL of liver microsomes (final concentration was 0.5 mg/mL) were subjected to metabolic stability incubation, the system containing NADPH (final concentration was 1 mM), 1 μM of the test compound and the positive control midazolam or the negative control atenolol, the reaction was terminated with acetonitrile containing tinidazole at 0 min, 5 min, 10 min, and 30 min, respectively, then the mixture was vortexed for 10 min, and centrifuged at 15000 rmp for 10 min, 50 μL of the supernatant was injected into 96 well. The metabolic stability of the compound was calculated by measuring the relative reduction of the original drug. (See Table 3 for specific values)

[2] = Metabolic stability in dog liver microsomes; settings: liver microsomes 0.5 mg/mL, NADPH, 1 μM compound, read-out: Dog microsomal T1/2
Protocol: as §1

[3] = Metabolic stability in mouse liver microsomes; settings: liver microsomes 0.5 mg/mL, NADPH, 1 μM compound, read-out: Mouse microsomal T1/2
Protocol: as §1

For `Cc1cc(F)cc(C)c1Oc1ccc(C(C)(C)O)cc1-c1cn(C)c(=O)c2cc(C(=O)NC3CC(F)(F)C3)[nH]c12` [Embodiment 18, N-(3,3-difluorocyclobutyl)-7-(2-(4-fluoro-2,6-dimethylphenoxy)-5-(2-hydroxyprop-2-yl)phenyl)-5-methyl-4-oxo-4,5-dihydro-1H-pyrrolo[3,2-c] pyridine-2-amide], the half-life at 1 μM [1] was 1.38 h, the half-life at 1 μM [2] was 6.67 h and the half-life at 1 μM [3] was 1.27 h.
